Tested on: primary rat mixed cortical cells
Assay: In vitro myelination assay (MBP positive myelin strands, fold myelin pixels above background)
Format: cell-based
Settings: Rattus norvegicus, relative to baseline of no added compound, read-out: Fold myelin pixels above background; for fold induction at 1 µM: 1.0 μM compound; for fold induction at 10 µM: 10.0 μM compound
How it was run: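 Read-out is total MBP-positive myelin strand pixels per well, detected by custom ridge-tracing software and reported as fold over untreated baseline. Primary P1 rat mixed cortical cells received compound (1.0 or 10.0 μM) for 14 days, with medium half-replaced on days 6 and 10. Standard deviation was taken across all replicates.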

| Compound | fold induction at 1 µM | fold induction at 10 µM |
| --- | --- | --- |
| COc1c(F)cc(-n2cnc(Nc3cc(C)cc(N4CCN(C5COC5)CC4)c3)n2)cc1F [Compound 646, 1-(3,5-difluoro-4-methoxy-phenyl)-N-[3-methyl-5-[4-(oxetan-3-yl)piperazin-1-yl]phenyl]-1,2,4-triazol-3-amine] | 10 to 100 | 1 to 10 |
| Cc1cc(-n2cnc(Nc3cc(F)cc(N4CCN(C5COC5)CC4)c3)n2)ccc1F [Compound 647, 1-(4-fluoro-3-methyl-phenyl)-N-[3-fluoro-5-[4-(oxetan-3-yl)piperazin-1-yl]phenyl]-1,2,4-triazol-3-amine] | 1 to 10 | ≤ 1 |
| Cc1cc(Nc2ncn(-c3cc(F)cc(F)c3)n2)cc(OCC2CCOC2)c1 (stereo not drawn) [Compound 648, 1-(3,5-difluorophenyl)-N-[3-methyl-5-(tetrahydrofuran-3-ylmethoxy)phenyl]-1,2,4-triazol-3-amine] | 10 to 100 | 10 to 100 |
| CN1CCN(c2cc(N3CCN(C4COC4)CC3)cc(Nc3ncn(-c4cc(F)cc(F)c4)n3)n2)CC1 [Compound 650, N-[1-(3,5-difluorophenyl)-1,2,4-triazol-3-yl]-6-(4-methylpiperazin-1-yl)-4-[4-(oxetan-3-yl)piperazin-1-yl]pyridin-2-amine] | 10 to 100 | 1 to 10 |
| Cc1cc(Nc2ncn(-c3cccc(C(F)(F)F)c3)n2)cc(N2CC(N3CCOCC3)C2)c1 [Compound 651, N-[3-methyl-5-(3-morpholinoazetidin-1-yl)phenyl]-1-[3-(trifluoromethyl)phenyl]-1,2,4-triazol-3-amine] | 10 to 100 | 1 to 10 |
| Cc1cc(Nc2ncn(-c3cc(F)cc(F)c3)n2)cc(N2CC(N3CCOC4CC43)C2)c1 (stereo not drawn) [Compound 652, 1-(3,5-difluorophenyl)-N-[3-methyl-5-[3-(5-oxa-2-azabicyclo[4.1.0]heptan-2-yl)azetidin-1-yl]phenyl]-1,2,4-triazol-3-amine] | 10 to 100 | ≤ 1 |
| CC(C)Oc1cc(Nc2ncn(-c3cc(F)cc(F)c3)n2)cc(N2CCN(C3COC3)CC2)c1 [Compound 653, 1-(3,5-difluorophenyl)-N-[3-isopropoxy-5-[4-(oxetan-3-yl)piperazin-1-yl]phenyl]-1,2,4-triazol-3-amine] | 10 to 100 | ≤ 1 |
| CCN1CCN(c2cc(C(F)(F)F)cc(Nc3ncn(-c4cc(F)cc(F)c4)n3)n2)CC1 [Compound 654, N-[1-(3,5-difluorophenyl)-1,2,4-triazol-3-yl]-6-(4-ethylpiperazin-1-yl)-4-(trifluoromethyl)pyridin-2-amine] | 1 to 10 | 1 to 10 |
| N#Cc1cc(Nc2ncn(-c3ccc(F)c(F)c3)n2)cc(N2CCN(C3COC3)CC2)c1 [Compound 656, 3-[[1-(3,4-difluorophenyl)-1,2,4-triazol-3-yl]amino]-5-[4-(oxetan-3-yl)piperazin-1-yl]benzonitrile] | 1 to 10 | ≤ 1 |
| CN1CCN(c2cc(Nc3ncn(-c4cc(F)cc(F)c4)n3)cc(N3CCN(C)CC3)c2)CC1 [Compound 657, N-[3,5-bis(4-methylpiperazin-1-yl)phenyl]-1-(3,5-difluorophenyl)-1,2,4-triazol-3-amine] | 1 to 10 | ≤ 1 |
| Cc1cc(Nc2ncn(-c3ccc(F)c(F)c3)n2)cc(N2CC(N3CCCOCC3)C2)c1 [Compound 659, 1-(3,4-difluorophenyl)-N-[3-methyl-5-[3-(1,4-oxazepan-4-yl)azetidin-1-yl]phenyl]-1,2,4-triazol-3-amine] | 10 to 100 | 10 to 100 |
| Fc1cc(F)cc(-n2cnc(Nc3cc(N4CC(N5CCOCC5)C4)cc(Cl)n3)n2)c1 [Compound 660, 6-chloro-N-[1-(3,5-difluorophenyl)-1,2,4-triazol-3-yl]-4-(3-morpholinoazetidin-1-yl)pyridin-2-amine] | ≤ 1 | ≤ 1 |
| Cc1cc(Nc2ncn(-c3cc(F)cc(F)c3)n2)cc(N2CC(N3CCS(=O)(=O)CC3)C2)c1 [Compound 661, 1-(3,5-difluorophenyl)-N-[3-[3-(1,1-dioxo-1,4-thiazinan-4-yl)azetidin-1-yl]-5-methyl-phenyl]-1,2,4-triazol-3-amine] | 10 to 100 | 1 to 10 |
| COc1cc(Nc2ncn(-c3cccc(C(F)(F)F)c3)n2)cc(N2CCN(C3COC3)CC2)c1 [Compound 662, N-[3-methoxy-5-[4-(oxetan-3-yl)piperazin-1-yl]phenyl]-1-[3-(trifluoromethyl)phenyl]-1,2,4-triazol-3-amine] | 10 to 100 | ≤ 1 |
| Cc1cc(Nc2ncn(-c3cc(F)cc(F)c3)n2)cc(C2CN(C3COC3)CC(C)O2)c1 (stereo not drawn) [Compound 663, 1-(3,5-difluorophenyl)-N-[3-methyl-5-[6-methyl-4-(oxetan-3-yl)morpholin-2-yl]phenyl]-1,2,4-triazol-3-amine] | 10 to 100 | ≤ 1 |
| CNC(=O)c1cc(Nc2ncn(-c3cc(F)cc(F)c3)n2)nc(N2CCN(C3COC3)CC2)c1 [Compound 664, 2-[[1-(3,5-difluorophenyl)-1,2,4-triazol-3-yl]amino]-N-methyl-6-[4-(oxetan-3-yl)piperazin-1-yl]pyridine-4-carboxamide] | 1 to 10 | 1 to 10 |
| N#Cc1cc(Nc2ncn(-c3cnccn3)n2)cc(N2CCOCC2)c1 [Compound 666, 3-morpholino-5-[(1-pyrazin-2-yl-1,2,4-triazol-3-yl)amino]benzonitrile] | 10 to 100 | 1 to 10 |
| N#Cc1cc(Nc2ncn(-c3ccc(F)c(F)c3)n2)cc(N2CCOCC2)c1 [Compound 668, 3-[[1-(3,4-difluorophenyl)-1,2,4-triazol-3-yl]amino]-5-morpholino-benzonitrile] | 1 to 10 | 1 to 10 |
| Cc1cc(Nc2ccn(C(C)C)n2)cc(Nc2ncn(-c3ccccc3)n2)c1 [Compound 669, N3-(1-isopropylpyrazol-3-yl)-5-methyl-N1-(1-phenyl-1,2,4-triazol-3-yl)benzene-1,3-diamine] | 10 to 100 | ≤ 1 |
| Cc1cc(Nc2ncn(-c3cc(F)cc(F)c3)n2)cc(N2CC(N3CCOC[C@H]3C)C2)c1 [Compound 670, 1-(3,5-difluorophenyl)-N-[3-methyl-5-[3-[(3R)-3-methylmorpholin-4-yl]azetidin-1-yl]phenyl]-1,2,4-triazol-3-amine] | 10 to 100 | 10 to 100 |
| Cc1cc(Nc2ncn(-c3cccc(C(F)(F)F)c3)n2)cc(OCC2(C)COC2)c1 [Compound 671, N-[3-methyl-5-[(3-methyloxetan-3-yl)methoxy]phenyl]-1-[3-(trifluoromethyl)phenyl]-1,2,4-triazol-3-amine] | 10 to 100 | 1 to 10 |
| Fc1cc(F)cc(-n2cnc(Nc3cc(C(F)(F)F)cc(N4CCOCC4)n3)n2)c1 [Compound 674, N-[1-(3,5-difluorophenyl)-1,2,4-triazol-3-yl]-6-morpholino-4-(trifluoromethyl)pyridin-2-amine] | 1 to 10 | 1 to 10 |
| COC(=O)c1cc(Nc2ncn(-c3cc(F)cc(F)c3)n2)nc(N2CCOCC2)c1 [Compound 675, methyl 2-[[1-(3,5-difluorophenyl)-1,2,4-triazol-3-yl]amino]-6-morpholino-pyridine-4-carboxylate] | 1 to 10 | 1 to 10 |
| Cc1cc(Nc2ncn(C)n2)cc(Nc2ncn(-c3ccccc3)n2)c1 [Compound 676, 5-methyl-N3-(1-methyl-1,2,4-triazol-3-yl)-N1-(1-phenyl-1,2,4-triazol-3-yl)benzene-1,3-diamine] | 10 to 100 | ≤ 1 |
| Cc1cc(Nc2ncn(-c3cc(F)cc(F)c3)n2)cc(OCC2(C)COC2)c1 [Compound 677, 1-(3,5-difluorophenyl)-N-[3-methyl-5-[(3-methyloxetan-3-yl)methoxy]phenyl]-1,2,4-triazol-3-amine] | 100 to 1000 | ≤ 1 |
| N#Cc1cc(Nc2ncn(-c3cc(F)cc(F)c3)n2)cc(N2CCN(C3COC3)CC2)c1 [Compound 678, 3-[[1-(3,5-difluorophenyl)-1,2,4-triazol-3-yl]amino]-5-[4-(oxetan-3-yl)piperazin-1-yl]benzonitrile] | 10 to 100 | 1 to 10 |
| FC(F)c1cc(Nc2ncn(-c3cccc(C(F)(F)F)c3)n2)nc(N2CCN(C3COC3)CC2)c1 [Compound 680, 4-(difluoromethyl)-6-[4-(oxetan-3-yl)piperazin-1-yl]-N-[1-[3-(trifluoromethyl)phenyl]-1,2,4-triazol-3-yl]pyridin-2-amine] | 10 to 100 | 10 to 100 |
| Cc1cc(Nc2ncn(-c3ccccc3)n2)cc(Nc2ncn(-c3ccccc3)n2)c1 [Compound 681, 5-methyl-N1,N3-bis(1-phenyl-1,2,4-triazol-3-yl)benzene-1,3-diamine] | 10 to 100 | 1 to 10 |
| Cc1cc(Nc2ncn(-c3cc(F)cc(F)c3)n2)cc(N2CC(C)(N3CCOCC3)C2)c1 [Compound 683, 1-(3,5-difluorophenyl)-N-[3-methyl-5-(3-methyl-3-morpholino-azetidin-1-yl)phenyl]-1,2,4-triazol-3-amine] | 10 to 100 | 10 to 100 |
| FC(F)(F)c1cc(Nc2ncn(-c3cccnc3)n2)nc(N2CCN(C3COC3)CC2)c1 [Compound 684, 6-[4-(oxetan-3-yl)piperazin-1-yl]-N-[1-(3-pyridyl)-1,2,4-triazol-3-yl]-4-(trifluoromethyl)pyridin-2-amine] | 10 to 100 | 10 to 100 |

From patent US10766869B2, “Triazoles for the treatment of demyelinating dieases” (Vertex Pharmaceuticals Incorporated, priority 2015, dated 2020)
